The values below come from publication PMC6192554, “In vitro toxicity and efficacy of verdinexor, an exportin 1 inhibitor, on opportunistic viruses affecting immunocompromised individuals” (PLoS ONE, 2018).

A value given as a limit tells only on which side of the number the result lay.

Series [1] can be described thus: Cytotoxicity in Akata cells (CellTiter-Glo), concurrent with EBV assays. The class given is cell-based. To be noted: human. The method, then: Cytotoxicity assays: Concurrent assessment of cytotoxicity was also performed for each study in the same cell line and with the same compound exposure. For KSHV, cell viability was assessed with the CellTiter-Glo Luminescent Cell Viability Assay (Promega) using manufacturer’s protocol. Luminescence was quantified on a luminometer. Standard methods were used to calculate the 50% cytotoxic level (CC50). Cytotoxicity assay was performed in a manner analogous to KSHV (see above).
(In ATP-based viability assays light output follows the ATP content of the culture.)

Another series concerns Human CMV strain AD169. The series can be described thus: HCMV yield reduction assay in HFF cells. It counts as cell-based, human cytomegalovirus. The conditions noted are these: Human betaherpesvirus 5, AD169, HFF. The method, then: Human CMV strain AD169 was obtained from ATCC and assayed in human foreskin fibroblast cells (HFF). HFF cells were prepared at the University of Alabama at Birmingham (UAB) tissue procurement facility with IRB approval as previously described. Yield reduction assays for HCMV were performed on monolayers of HFF cells prepared in 96-well plates and incubated at 37°C for 1d to allow the cells to reach confluency. Media was then aspirated from the wells were infected at a high multiplicity of infection (MOI). At 1h following infection, the inocula were removed and the monolayers rinsed with fresh media. Compounds were then diluted in assay media consisting of MEM with Earl’s salts supplemented with 2% FBS, L-glutamine, penicillin, and gentamycin. Solutions ranging from 0.0032–10μM in primary assay and 0.032–100μM in secondary assay were added to the wells and the plates were incubated for various times, depending on the virus used and represents the length of a single replication cycle for the virus. A duplicate set of dilutions were also performed but remained uninfected to serve as a cytotoxicity control and received equal compound exposure. Supernatants from each of the infected wells were subsequently titered in a TCID50 assay to quantify the progeny virus.

For the next series, the system named is KSHV strain BCBL-1. The series can be described thus: KSHV qPCR of viral DNA in PMA-induced BCBL-1 cells. The class given is cell-based, Kaposi's sarcoma-associated herpesvirus. The conditions noted are these: Human gammaherpesvirus 8, BCBL1, KSHV. Here is the method:
KSHV strain BCBL-1 was obtained as latently infected BCBL-1 cells through the NIH AIDS Research and Reference Reagent Program. BCBL-1 cells were maintained in growth medium consisting of RPMI 1640 supplemented with 10% FBS, penicillin, gentamicin, and l-glutamine.
To quantify virus, compound was diluted from 0.008–100μM and added to BCBL-1 cells induced to undergo a lytic infection by the addition of 100ng/ml phorbol 12-myristate 13-acetate (PMA) (Promega). After 7d, total DNA was prepared, and viral DNA was quantified by qPCR (see S1 Table for primer/probe sequences). Plasmid pMP218 containing a DNA sequence corresponding to nucleotides 14120–14182 (AF148805.2) was used to provide absolute quantification of viral DNA and EC50 [11].
In general terms: Quantitative PCR measures a nucleic acid by following its amplification.

A short description of series [2]: Cytotoxicity in BCBL-1 cells (CellTiter-Glo). It counts as cell-based. The conditions noted are these: human. The method, then:
Cytotoxicity assays: Concurrent assessment of cytotoxicity was also performed for each study in the same cell line and with the same compound exposure. For KSHV, cell viability was assessed with the CellTiter-Glo Luminescent Cell Viability Assay (Promega) using manufacturer’s protocol. Luminescence was quantified on a luminometer. Standard methods were used to calculate the 50% cytotoxic level (CC50).

Series [3] in a line: Cytotoxicity in HeLa cells (MTS). The class given is cell-based. To be noted: human. Here is the method:
Cytotoxicity assays: Concurrent assessment of cytotoxicity was also performed for each study in the same cell line and with the same compound exposure. For AdV cytotoxicity assay, at 6d post-infection plates were stained with tetrazolium-based MTS (CellTiter96 Reagent, Promega) and the microtiter plates were read spectrophotometrically at 490/650nm (Molecular Devices).

Series [4] concerns JC polyoma virus MAD-4 strain. The experiment in a line: microbe, parasite or virus in culture. The conditions noted are these: Polyomavirus sp., COS-7, JCPyV, COS-7 cells. It counts as cell-based. Here is the method: John Cunningham polyomavirus (JCPyV) strains MAD-1 and MAD-4 and BK polyomavirus (BKPyV) Gardner strain were obtained from ATCC. COS-7 cells were obtained from ATCC and maintained according to ATCC-supplied protocols.
(§1) Cytotoxicity assay was performed in a manner analogous to KSHV above. Evaluation of compounds against JCPyV virus was done in COS7 cells with the plasmid pMP508 to provide a standard curve for quantification.
Viral DNA was quantified (S1 Table) together with the plasmid pMP508 to provide a standard curve for absolute quantification. Secondary assays against JCV were also performed in COS7 cells by methods similar to those for BK virus to identify if verdinexor inhibited adsorption or entry of the virus.

Series [5] is described as follows: Cytotoxicity in COS7 cells, concurrent with JCPyV assays. The conditions noted are these: African green monkey, COS-7 cells. The class given is cell-based. The method, then:
(§2) Cytotoxicity assays: Concurrent assessment of cytotoxicity was also performed for each study in the same cell line and with the same compound exposure.
For KSHV, cell viability was assessed with the CellTiter-Glo Luminescent Cell Viability Assay (Promega) using manufacturer’s protocol. Luminescence was quantified on a luminometer. Standard methods were used to calculate the 50% cytotoxic level (CC50).
as §1

A short description of series [6]: Cytotoxicity in primary human keratinocytes (PHK). It counts as cell-based. The conditions noted are these: HPV-18 secondary screen, PHKs. Here is the method: as §2
HPV cytotoxicity assay was performed at the time of viral harvest by scoring cells in a BioRad Automatic Cell Counter for cell viability.
For secondary assays, the amplification of HPV-18 DNA was determined in an organotypic squamous epithelial raft culture of PHKs. Whole genomic HPV-18 plasmids were generated in plasmid-transfected PHKs and developed into organotypic cultures as described. Based on the results of a 3-day toxicity assay, concentrations of test compound were added to a subset of raft cultures from day 6 through day 13 when the cultures were harvested. Similarly treated normal PHK raft cultures were also prepared to assess toxicity of uninfected tissue. One set of cultures were fixed in 10% buffered formalin, paraffin embedded and sectioned for in situ assay. Sections were stained with hematoxylin and eosin. Total DNA harvest from unfixed raft cultures was used to determine the HPV-18 copy number/per cell by qPCR. Inhibition was expressed as % of viral DNA copies relative to the untreated cultures.

Series [7] in a line: Cytotoxicity in GPL cells. The class given is cell-based. To be noted: primary guinea pig lung cells (GPL), Guinea pig CMV primary screen. Here is the method:
Cytotoxicity assays: Concurrent assessment of cytotoxicity was also performed for each study in the same cell line and with the same compound exposure. For HCMV cytotoxicity assay was determined via neutral red uptake assay and was conducted as reported previously in HFF cells. Optical densities were determined at 550nm. Cytotoxicity assay was performed in a manner analogous to HCMV (see above).

The target of another series is histamine H1 receptor (Homo sapiens, UniProt P35367). The experiment in a line: Histamine H1 receptor binding (off-target panel). To be noted: Study No. KS-1016 and PE-50946871.
histamine H1 receptor, sequence (P35367 whole entry, species assumed): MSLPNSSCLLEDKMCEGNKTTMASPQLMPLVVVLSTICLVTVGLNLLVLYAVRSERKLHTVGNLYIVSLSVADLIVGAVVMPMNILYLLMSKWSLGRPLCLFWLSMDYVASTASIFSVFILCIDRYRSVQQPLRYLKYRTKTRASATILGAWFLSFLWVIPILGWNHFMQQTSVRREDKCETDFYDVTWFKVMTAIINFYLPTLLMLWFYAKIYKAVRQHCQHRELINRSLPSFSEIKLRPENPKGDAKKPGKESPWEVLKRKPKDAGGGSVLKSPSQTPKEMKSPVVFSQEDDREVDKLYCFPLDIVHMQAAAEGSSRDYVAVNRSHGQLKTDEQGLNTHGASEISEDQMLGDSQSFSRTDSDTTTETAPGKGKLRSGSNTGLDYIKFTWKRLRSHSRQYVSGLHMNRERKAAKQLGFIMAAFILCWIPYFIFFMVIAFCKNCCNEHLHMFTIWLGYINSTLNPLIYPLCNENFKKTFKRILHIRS
The conditions of series [8]: ferrets receiving 5mg/kg; cited from earlier work.

Regarding `O=C(C=Cn1cnc(-c2cc(C(F)(F)F)cc(C(F)(F)F)c2)n1)NNc1ccccn1` (stereo in doubt) [verdinexor, (E)-3-[3-[3,5-bis(trifluoromethyl)phenyl]-1,2,4-triazol-1-yl]-N'-pyridin-2-ylprop-2-enehydrazide], the cytotoxic concentration (CC50) in series [1] (EBV assays) was under 680 nM; in series [1] (EBV primary screen), 680 nM; in series [1] (EBV secondary screen), 340 nM; in series [2] (KSHV primary screen) it was 2760 nM; in [2] (KSHV secondary screen), 1400 nM; in [5] (JCPyV primary screen), 10000 nM. In addition, the cytotoxic concentration (CC50) turned out to be 73300 nM in [5] (JCPyV secondary screen), 8300 nM in series [6] and 2000 nM in [7]. Moreover, the EC50 is 190 nM in the series on Human CMV strain AD169 (primary screen); 2500 nM with Human CMV strain AD169 (secondary screen); under 800 nM in the series with KSHV strain BCBL-1 (primary screen); 270 nM with KSHV strain BCBL-1 (secondary screen); 7450 nM in series [4] (primary screen); 3140 nM in series [4] (secondary screen). Further, the half-maximal cytotoxic concentration (CC50) at 6 d in [3] (Ad5 primary screen) came out at 180 nM; in series [3] (Ad5 secondary screen), 100 nM. Further, testing at 10 µM on histamine H1 receptor gave an inhibition of 33%. Moreover, the half life in series [8] was 2 h.

Broadly, the CC50 is the concentration at which the toxic effect on the cells reaches its halfway point. A word on the EC50: it is the midpoint of the concentration-response curve. The inhibition is the change of the read-out against control, counted positive when it falls. Read a low inhibition as a weak effect.
